Experimental findings from patent US9624280B2 (JANSSEN BIOTECH, INC., priority 2013, dated 2017) are described below.

Assay [1] has as its target T1, human Nav1.6 (Homo sapiens, UniProt Q9UQD0).
T1 construct: expressed in transfected cells
It counts as cell-based.

Assay [2] addresses T2, human Nav1.7 (Homo sapiens, UniProt Q15858, W1161R).
T2 construct: expressed in transfected cells
It counts as cell-based.

No end group written: not given here.

T1 sequence (Q9UQD0 whole entry): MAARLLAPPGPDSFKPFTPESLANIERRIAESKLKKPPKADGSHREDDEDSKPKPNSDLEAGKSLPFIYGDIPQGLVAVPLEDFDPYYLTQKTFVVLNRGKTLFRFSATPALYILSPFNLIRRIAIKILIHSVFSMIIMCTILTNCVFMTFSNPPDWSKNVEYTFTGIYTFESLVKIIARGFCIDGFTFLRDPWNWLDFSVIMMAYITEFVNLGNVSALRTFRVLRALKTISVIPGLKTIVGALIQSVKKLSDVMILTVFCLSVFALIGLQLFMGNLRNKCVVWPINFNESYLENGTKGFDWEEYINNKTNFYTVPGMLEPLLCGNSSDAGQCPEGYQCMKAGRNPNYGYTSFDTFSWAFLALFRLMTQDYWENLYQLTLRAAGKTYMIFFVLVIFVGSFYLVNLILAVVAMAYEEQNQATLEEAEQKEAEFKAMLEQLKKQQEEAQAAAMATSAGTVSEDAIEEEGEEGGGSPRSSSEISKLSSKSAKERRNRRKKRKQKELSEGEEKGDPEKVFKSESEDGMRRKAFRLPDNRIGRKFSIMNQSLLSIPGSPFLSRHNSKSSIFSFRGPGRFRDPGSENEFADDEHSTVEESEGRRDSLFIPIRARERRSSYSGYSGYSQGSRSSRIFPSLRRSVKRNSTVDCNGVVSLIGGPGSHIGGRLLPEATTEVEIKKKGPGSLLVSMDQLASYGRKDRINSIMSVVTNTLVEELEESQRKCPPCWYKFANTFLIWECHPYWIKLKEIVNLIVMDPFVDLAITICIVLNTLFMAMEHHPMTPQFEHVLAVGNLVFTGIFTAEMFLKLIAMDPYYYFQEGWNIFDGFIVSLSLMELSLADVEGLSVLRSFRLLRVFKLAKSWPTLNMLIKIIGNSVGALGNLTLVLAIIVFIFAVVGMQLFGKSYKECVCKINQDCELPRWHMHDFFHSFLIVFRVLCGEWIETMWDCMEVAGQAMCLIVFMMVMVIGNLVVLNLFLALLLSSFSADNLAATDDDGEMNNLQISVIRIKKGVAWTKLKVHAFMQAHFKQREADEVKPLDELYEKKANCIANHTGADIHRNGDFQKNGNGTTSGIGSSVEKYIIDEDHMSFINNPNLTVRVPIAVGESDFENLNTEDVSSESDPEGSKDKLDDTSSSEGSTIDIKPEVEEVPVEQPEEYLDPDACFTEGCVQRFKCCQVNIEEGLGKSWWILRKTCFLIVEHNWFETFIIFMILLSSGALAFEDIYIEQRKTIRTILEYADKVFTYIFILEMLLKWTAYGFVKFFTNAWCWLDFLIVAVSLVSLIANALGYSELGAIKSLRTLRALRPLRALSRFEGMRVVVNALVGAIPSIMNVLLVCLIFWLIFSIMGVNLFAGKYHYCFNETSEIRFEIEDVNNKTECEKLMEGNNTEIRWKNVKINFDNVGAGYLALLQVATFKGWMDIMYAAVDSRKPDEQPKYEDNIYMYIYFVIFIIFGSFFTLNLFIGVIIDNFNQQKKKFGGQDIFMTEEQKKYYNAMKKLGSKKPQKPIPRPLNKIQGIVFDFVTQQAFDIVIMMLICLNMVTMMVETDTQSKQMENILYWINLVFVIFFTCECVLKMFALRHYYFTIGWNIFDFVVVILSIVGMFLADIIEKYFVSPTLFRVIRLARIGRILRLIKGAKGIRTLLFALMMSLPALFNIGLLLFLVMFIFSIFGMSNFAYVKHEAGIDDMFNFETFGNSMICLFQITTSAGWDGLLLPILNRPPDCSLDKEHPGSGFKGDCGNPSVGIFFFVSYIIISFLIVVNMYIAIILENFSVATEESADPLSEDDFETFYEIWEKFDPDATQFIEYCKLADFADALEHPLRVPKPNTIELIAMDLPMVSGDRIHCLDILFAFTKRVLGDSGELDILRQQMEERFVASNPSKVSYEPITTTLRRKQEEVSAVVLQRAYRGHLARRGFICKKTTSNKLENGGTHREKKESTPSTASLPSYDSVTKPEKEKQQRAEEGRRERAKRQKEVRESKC

As to “Ac-QCQKWMQTCDAERKCCEGFSCTLWCKKKLW-NH2 [(-GP) N-Ac-NV1D2974-NH2]”, the “selectivity for Nav1.7 compared to recombinant Protoxin-II” value (“selectivity” below) in assay [1] was “improved selectivity”.

Turning to “Ac-QCQKWMQTCDRERKCCEGFVCTLWCRKKLW-NH2 [(-GP) N-Ac-NV1D3034-NH2]”, the “selectivity” value in assay [1] is on record as “improved selectivity”. Same read-out and setting: for “GPACQKWMQTCDANRKCCEGFSCRLWCKKKLW-OH (cysteine pairing not given here) [NV1D3587]” the value was “improved selectivity”; for “GPACQKWMQTCDRNRKCCEGFVCTLWCRKKLW-OH (cysteine pairing not given here) [NV1D3541]”, “improved selectivity”. Take “GPCCNCSSKWCRDHSRCCGRGSAPAPAPAPAPAPAPAPAPAPGSQCQKWMQTCDAERKCCEGFVCRLWCKKKLW [NV1D3260]”: half-maximal inhibition in assay [2] (IC50) required 57.6 nM. Same read-out and setting: for “GPCCNCSSKWCRDHSRCCGRGSAPAPAPAPAPAPAPAPAPAPGSQCQKWMQTCDRERKCCEGFVCTLWCRKKLW [NV1D3793]” the value was 64.6 nM; for “GPCCNCSSKWCRDHSRCCGRGSAPAPAPAPAPGSQCQKWMQTCDAERKCCEGFVCRLWCKKKLW [NV1D3256]”, 55.7 nM; for “GPCCNCSSKWCRDHSRCCGRGSGGGGSAPAPAPAPAPAPAPAPAPAPGGGGSGSQCQKWMQTCDRERKCCEGFVCTLWCRKKLW [NV1D3830]”, 88.6 nM. The same measure, in the same setting: for “GPCCNCSSKWCRDHSRCCGSAPAPAPAPAPAPAPAPAPAPGSQCQKWMQTCDAERKCCEGFVCRLWCKKKLW [NV1D3262]” the value was 89.2 nM; for “GPCCNCSSKWCRDHSRCCGSAPAPAPAPAPAPAPAPAPAPGSQCQKWMQTCDRERKCCEGFVCTLWCRKKLW [NV1D3795]”, 100 nM. Substance “GPCCNCSSKWCRDHSRCCGSAPAPAPAPAPGSQCQKWMQTCDRERKCCEGFVCTLWCRKKLW [NV1D3796]” had an IC50 in assay [2] of 110 nM. The same measure, in the same setting: for “GPCRTIGPSVCAPAPAPAPAPAPAPAPAPAPQCQKWMQTCDRERKCCEGFVCTLWCRKKLW [NV1D3832]” the value was 88.4 nM. Same read-out and setting: for “GPGWCGDPGATCGKLRLYCCSGFCDAYTKTCKDKSSAGGGGSAPAPAPAPAPAPAPAPAPAPAPAPAPAPAPGGGGSQCQKWMQTCDRERKCCEGFVCTLWCRKKLW [NV1D3824]” the value was 110 nM. Still for that read-out and setting: to “GPGWCGDPGATCGKLRLYCCSGFCDSYTKTCKDKSSAGGGGSAPAPAPAPAPAPAPAPAPAPAPAPAPAPAPGGGGSQCQKWMQTCDRERKCCEGFVCTLWCRKKLW [NV1D3822]” belongs 74.2 nM. In the case of “GPQCQKWMQSCDRERKCCEGFVCTLWCRKKLW-OH (cysteine pairing not given here) [NV1D3359]”, the “selectivity” value in assay [1] is reported as “improved selectivity”. As for “GPQCQKWMQTCDAERKCCEGFSCTLWCKKKLW-NH2 [NV1D2974-NH2]”, in assay [1], the “selectivity” value is recorded as “improved selectivity”. The same measure, in the same setting: for “GPQCQKWMQTCDAERKCCEGFSCTLWCKKKLW-OH (cysteine pairing not given here) [NV1D2974]” the value was “improved selectivity”; for “GPQCQKWMQTCDAERKCCEGFVCRLWCKKKLW-NH2 [NV1D2775-NH2]”, “improved selectivity”. For the substance “GPQCQKWMQTCDAERKCCEGFVCRLWCKKKLWGSAPAPAPAPAPAPAPAPAPAPGSCCNCSSKWCRDHSRCCGR [NV1D3259]”, inhibition in assay [2] was half-maximal at 54.9 nM (IC50). As for “GPQCQKWMQTCDARRKCCEGFVCRLWCKKKLW-OH (cysteine pairing not given here) [NV1D3006]”, the “selectivity” value in assay [1] is “improved selectivity”. On the same count and under the same terms, for “GPQCQKWMQTCDRERKCCEGFVCTLWCRKKLW-NH2 [NV1D3034-NH2]” the value was “improved selectivity”; for “GPQCQKWMQTCDRERKCCEGFVCTLWCRKKLW-NH-butyl [NV1D3034-NH-butyl]”, “improved selectivity”.

For the substance “GPQCQKWMQTCDRERKCCEGFVCTLWCRKKLWGGGGSAPAPAPAPAPAPAPAPAPAPAPAPAPAPAPGGGGSGWCGDPGATCGKLRLYCCSGFCDAYTKTCKDKSSA [NV1D3825]”, the IC50 in assay [2] turned out to be 194 nM. The same measure, in the same setting: for “GPQCQKWMQTCDRERKCCEGFVCTLWCRKKLWGSAPAPAPAPAPAPAPAPAPAPGSCCNCSSKWCRDHSRCC [NV1D3797]” the value was 91.1 nM.

Turning to “GPQCQKWMQTCDRERKCCEGFVCTLWCRKKLWGSAPAPAPAPAPAPAPAPAPAPGSCCNCSSKWCRDHSRCCGR [NV1D3798]”, in assay [2], the IC50 amounted to 94.5 nM. The IC50 values of the last two substances are within 1.5-fold of each other.

As for “GPQCQKWMQTCDRERKCCEGFVCTLWCRKKLWGSAPAPAPAPAPGSCCNCSSKWCRDHSRCC [NV1D3799]”, 50.6 nM corresponded to half-maximal inhibition in assay [2] (IC50).

As to “GPQCQKWMQTCDRERKCCEGFVCTLWCRKKLWGSAPAPAPAPAPGSCCNCSSKWCRDHSRCCGR [NV1D3800]”, the IC50 in assay [2] was 60.9 nM. Still for that read-out and setting: for “GPQCQKWMQTCDRERKCCEGFVCTLWCRKKLWGSGGGGSAPAPAPAPAPAPAPAPAPAPGGGGSGSCCNCSSKWCRDHSRCC [NV1D3829]” the value was 122 nM; for “GPQCQKWMQTCDRERKCCEGFVCTLWCRKKLWGSGGGGSAPAPAPAPAPAPAPAPAPAPGGGGSGSCCNCSSKWCRDHSRCCGR [NV1D3828]”, 87.5 nM. As for “GPQCQKWMQTCDRERKCCQGFVCTLWCRKKLW-OH (cysteine pairing not given here) [NV1D3388]”, the “selectivity” value in assay [1] was “improved selectivity”.

Take “GPQCQKWMQTCDRNRKCCEGFVCTLWCRKKLW-OH (cysteine pairing not given here) [NV1D3044]”: the “selectivity” value in assay [1] was “improved selectivity”. For the substance “GPRCQKWMQTCDAERKCCEGFVCRLWCKKKLW-OH (cysteine pairing not given here) [NV1D2772]”, the “selectivity” value in assay [1] is listed as “improved selectivity”. Regarding “GPSHSNTQTLAKAPEHTGAPAPAPAPAPAPAPAPAPAPQCQKWMQTCDRERKCCEGFVCTLWCRKKLW [NV1D3774]”, the IC50 in assay [2] stood at 88.6 nM. Consider “GPYCQKWMQTCDANRKCCEGFSCRLWCKKKLW-NH2 [NV1D3586-NH2]”, for which the “selectivity” value in assay [1] is listed as “improved selectivity”. The same measure, in the same setting: to “GPYCQKWMQTCDANRKCCEGFSCRLWCKKKLW-OH (cysteine pairing not given here) [NV1D3586]” belongs “improved selectivity”.
